Assay [1] relates to collagen-induced arthritis. The assay is described as follows: Collagen-induced arthritis in the rat (arthritis score). The format is in vivo, rat "Dark Aganti". Conditions: score at 23rd day. On the procedure: c) Antiarthritic effect Collagen-induced arthritis was induced in the rat “Dark […]” according to the protocol by Kamada et al. (Jpn J. Pharmacol., 1997, 74: 313). The LTA4 hydrolase inhibitors are administered either “preventively” (starting from one day after the collagen), or curatively (during the first pathological manifestations, that is starting from 15 days after the collagen). […] The effect is-compared with that of indomethacin (1.5 mg/kg, p.o.).

Assay [2] addresses T1, human recombinant LTA4 hydrolase (Homo sapiens, UniProt P09960).
T1 construct: made in house; host or cells: E. coli JM109
T1 sequence (P09960 1-611): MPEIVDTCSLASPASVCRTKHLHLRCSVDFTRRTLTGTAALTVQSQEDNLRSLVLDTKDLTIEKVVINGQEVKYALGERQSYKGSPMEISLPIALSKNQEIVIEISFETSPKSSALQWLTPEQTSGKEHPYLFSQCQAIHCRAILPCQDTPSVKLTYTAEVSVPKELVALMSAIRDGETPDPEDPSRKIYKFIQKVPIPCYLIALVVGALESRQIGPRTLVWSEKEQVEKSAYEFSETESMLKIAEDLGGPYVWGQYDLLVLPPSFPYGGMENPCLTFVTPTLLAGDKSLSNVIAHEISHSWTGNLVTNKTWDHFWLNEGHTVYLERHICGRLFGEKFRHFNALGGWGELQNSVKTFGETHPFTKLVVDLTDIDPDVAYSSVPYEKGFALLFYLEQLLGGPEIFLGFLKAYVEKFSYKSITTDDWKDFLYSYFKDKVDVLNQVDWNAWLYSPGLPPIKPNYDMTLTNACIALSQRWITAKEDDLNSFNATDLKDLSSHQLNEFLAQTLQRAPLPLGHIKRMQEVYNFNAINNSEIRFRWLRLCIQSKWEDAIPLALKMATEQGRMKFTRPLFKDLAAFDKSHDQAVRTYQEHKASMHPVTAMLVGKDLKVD
The assay is described as follows: Inhibition of the aminopeptidase activity of recombinant LTA4 hydrolase (fluorimetric, Ala-AMC). Conditions: human recombinant enzyme, Ala-AMC 25 μM, DTT 10^−5 M, pH 7.4, 37° C. It counts as biochemical. The procedure:
1) Inhibition of the aminopeptidase activity of recombinant LTA4 hydrolase
The compounds were tested using human recombinant LTA4 hydrolase (Minami et al., FEBS Letters, 1988, 229: 279). The LTA4 hydrolase expressed by E. coli JM109 is purified mainly according to Minami et al., (J. Biol. Chem., 1987, 262: 13873).
(§1) The inhibition of the aminopeptidase activity of the enzyme is measured by means of a fluorimetric method in 96-well microplates. The recombinant enzyme (0.5 μg in 50 μl of 50 mM Tris-HCl pH 7.4) is preincubated for 10 minutes at 37° C. in the presence of inhibitor and of dithiothreitol (DTT, 10^−5 M). The substrate alanyl-amido-methylcoumarin (Ala-AMC, 25 μM−Tris HCl 50 mM, pH 7.4) is added and the incubation is continued for 15 minutes at 37° C. The release of AMC is measured by fluorimetry.

Assay [3] deals with T2, aminopeptidase M (EC 3.4.11.2) (Sus scrofa, UniProt P15145).
T2 construct: purchased Pierce, USA
T2 sequence (P15145 1-963): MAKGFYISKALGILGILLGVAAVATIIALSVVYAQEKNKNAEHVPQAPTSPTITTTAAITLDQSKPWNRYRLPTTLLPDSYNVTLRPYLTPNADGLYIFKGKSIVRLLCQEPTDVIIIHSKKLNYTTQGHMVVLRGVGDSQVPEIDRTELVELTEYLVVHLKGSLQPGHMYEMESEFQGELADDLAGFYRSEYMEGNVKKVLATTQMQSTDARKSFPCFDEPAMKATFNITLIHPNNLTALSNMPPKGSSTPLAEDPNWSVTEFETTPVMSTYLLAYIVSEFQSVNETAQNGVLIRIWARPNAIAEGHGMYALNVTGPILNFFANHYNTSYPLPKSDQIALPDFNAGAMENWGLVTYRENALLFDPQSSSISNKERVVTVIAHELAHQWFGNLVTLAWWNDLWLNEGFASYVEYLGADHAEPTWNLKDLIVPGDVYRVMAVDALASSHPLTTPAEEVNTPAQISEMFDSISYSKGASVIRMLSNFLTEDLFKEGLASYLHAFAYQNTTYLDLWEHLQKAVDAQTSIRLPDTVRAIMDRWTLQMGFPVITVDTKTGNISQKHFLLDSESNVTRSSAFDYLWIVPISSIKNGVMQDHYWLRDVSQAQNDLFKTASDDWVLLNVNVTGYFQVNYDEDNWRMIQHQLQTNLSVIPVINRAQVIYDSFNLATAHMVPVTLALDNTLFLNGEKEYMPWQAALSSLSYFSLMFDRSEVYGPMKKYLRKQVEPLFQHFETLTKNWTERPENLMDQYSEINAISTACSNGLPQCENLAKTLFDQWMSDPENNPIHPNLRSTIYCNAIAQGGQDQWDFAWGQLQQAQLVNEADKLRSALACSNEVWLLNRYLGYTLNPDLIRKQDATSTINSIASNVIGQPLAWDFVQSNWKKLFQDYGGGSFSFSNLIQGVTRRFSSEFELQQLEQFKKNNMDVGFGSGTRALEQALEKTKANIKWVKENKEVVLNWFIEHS
The experiment in a line: Inhibition of membrane aminopeptidase M (same fluorimetric test). Conditions: 0.1 μg aminopeptidase M (Pierce). It counts as biochemical. On the procedure: as §1
To evaluate the specificity of the compounds according to the invention, some of them were also tested for their capacity to inhibit the activity of membrane aminopeptidase M (EC 3.4.11.2). The same test is carried out with 0.1 μg of aminopeptidase M (Pierce, USA).

The target of assay [4] is T3, LTA4 hydrolase activity in human whole blood (Homo sapiens, UniProt P09960).
T3 construct: from tissue; host or cells: human whole blood collected over sodium heparinate
T3 sequence (P09960 1-611): T1 sequence (P09960 1-611)
The assay is described as follows: Inhibition of the biosynthesis of LTB4 in vitro in human whole blood. Conditions: LTA4 substrate, LTB4 by enzyme-linked immunoassay. It counts as cell-based. The procedure: 2) Inhibition of the biosynthesis of LTB4 in vitro
The biosynthesis of LTB4 is measured in human whole blood in the presence of inhibitors of LTA4 hydrolase according to the invention. A 50 μl blood sample collected over sodium heparinate is preincubated for 10 minutes at 37° C. in the presence of inhibitor (50 mM Tris-HCl, 0.15 M NaCl, 10^−5 M DTT, pH 7.4).
The LTA4 substrate was freshly prepared by alkaline hydrolysis of LTA4 methyl ester (Cayman Chemical Co., USA). After incubating for 10 minutes in the presence of LTA4 (1 μm in 50 mM Tris-HCl, 0.15 M NaCl, 0.5% BSA, pH 7.4), the reaction is stopped by diluting 1/20 in 0.1 M potassium phosphate buffer containing 1.5 mM […], 0.4 M NaCl, 1 mM EDTA, 0.1% BSA, pH 7.4−4° C.
The LTB4 is assayed by enzyme-linked immunoassay (Cayman Chemical Co, USA).

The test system of the next assay is biosynthesis of LTB4. The assay is described as follows: Inhibition of the biosynthesis of LTB4 ex vivo (mouse blood after oral dosing). It counts as in vivo. Conditions: mice, blood collected thirty minutes later. The procedure:
3) Inhibition of the biosynthesis of LTB4 ex vivo
The compounds inhibiting LTA4 hydrolase according to the invention are suspended in 1.25% methyl cellulose and administered to mice by the oral route at the dose of 10 mg/kg. Thirty minutes later, the mice are sacrificed and the blood collected over lithium heparinate. The blood is then, as above, incubated for 10 minutes at 37° C. in the presence of LTA4 and then the LTB4 formed is assayed by enzyme-linked immunoassay.

Assay [5] relates to biosynthesis of LTB4 in the air pouch. The assay is described as follows: Inflammation induced by carrageenan in the air pouch model in mice (LTB4 in exudate). The format is in vivo. The procedure: b) Inflammation induced by carrageenan in the air pouch model in mice
The air pouches are formed in mice according to Dawson et al. (Int. J. Tiss. React., 1991, XIII: 171). On day D, 5 ml of air are injected by the subcutaneous route into the back of the mice. On D+3, the pouch is maintained by reinjecting 3 ml of air. On D+6, either a cyclooxygenase inhibitor (indomethacin 5 mg/kg), or an LTA4 hydrolase inhibitor according to the invention (25 mg/kg), or the two in combination are administered by the oral route. After 1 h, 1 ml of 1% carrageenan is injected into the air pouch. The animals are sacrificed 4 h after the injection of carrageenan. The air pouche is washed with 1 ml of 50 mM potassium phosphate buffer containing 0.15 M NaCl, pH 7.4. The exudate is recovered and centrifuged at 10,000 g for 5 minutes. LTB4 is assayed in the supernatant by enzyme-linked immunoassay.

Assay [6] relates to oedema of the leg induced by Zymosan. The experiment in a line: Oedema of the leg induced by Zymosan in mice. Conditions: oral route, 30 mg/kg, one hour before zymosan, sacrificed after 4 hours. The format is in vivo. The procedure: a) Oedema of the leg induced by Zymosan in mice Zymosan is a polysaccharide of the yeast cell membrane. Injected into the leg of animals, it causes a local inflammatory reaction in the form of an oedema. One hour after administration of the inhibitor tested by the oral route to mice, at the dose of 30 mg/kg, 25 μl of zymosan (0.05% in 0.15 M NaCl) are injected into the left hind leg and 25 μl of physiological saline into the right leg as control. The animal is sacrificed after 4 hours, the legs cut at the ankle and weighed in order to evaluate the oedema developed.

Data on eight compounds can be found in US6436973B1, “LTA4 hydrolase inhibitors” (Bioprojet, priority 1998, dated 2002).

Each structure is given as a SMILES string. Where a name gives a salt, the structure may show the parent alone.

As to `Cl.Cl.NC(CCCCOc1ccccc1)CSSCC(N)CCCCOc1ccccc1` [Example 229, 1,1-dithiobis(2-(R,S)-amino-6-phenoxyhexane) dihydrochloride], the Arthritis score in assay [1] (curative (starting 15 days after collagen), 10 mg/kg i.p. twice/day) is recorded as 0.38 ± 0.19; in assay [1] (preventive (starting one day after collagen), 10 mg/kg i.p. twice/day), 0.

On to `NC(CS)CCCCc1ccccc1` (racemic) [Example 173, (R,S)-2-amino-6-phenyl-1-hexanethiol hydrochloride], for which the Ki (as a rule, a measure of affinity in units of concentration, obtained from inhibition or displacement) amounted to 0.033 µM in assay [2], 0.2 µM in assay [3] and 0.2 µM in assay [4].

With `N[C@@H](CS)CSCc1ccccc1` [Example 23, (S)-2-amino-3-benzylthio-1-propanethiol hydrochloride], in assay [2], the Ki was 0.062 µM.

For `Cl.N[C@@H](CS)CCCOc1ccccc1` (racemic) [Example 177, (R,S)-2-amino-5-phenoxy-1-pentanethiol hydrochloride], the “Inhibition (%) of the biosynthesis of LTB4 ex vivo” value in the assay on biosynthesis of LTB4 (10 mg/kg) amounted to 68%.

Consider `N[C@H](CS)COCc1ccccc1` [Example 24, (S)-2-amino-3-benzyloxy-1-propanethiol hydrochloride], for which the inhibition (usually the change of the read-out against control, counted positive when it falls) at 10 mg/kg in the assay with biosynthesis of LTB4 (Mus musculus) was 28%.

For `COc1ccc2c(c1)c(CC(=O)O)c(C)n2C(=O)c1ccc(Cl)cc1` [indomethacin, reference compound], the “% LTB4 relative to the noninflamed control” value in assay [5] (carrageenan + indomethacin 5 mg/kg oral, 4 h after carrageenan) is listed as “+516%”. The same compound returned an Arthritis score in assay [1] (curative, 1.5 mg/kg p.o.) of 1.35 ± 0.61.

Take `Cl.N[C@@H](CS)CCCCOc1ccccc1` (racemic) [Example 156, (R,S) -2-amino-6-phenoxy-1-hexanethiol hydrochloride]: the “Inhibition (%) of oedema of the leg induced by Zymosan” value in assay [6] was determined as 35%. For the same compound, the “% LTB4 relative to the noninflamed control” value in assay [5] (carrageenan + LTA4 hydrolase inhibitor 25 mg/kg oral, 4 h after carrageenan) is −24%; in assay [5] (carrageenan + indomethacin 5 mg/kg + inhibitor 25 mg/kg in combination, oral), −28%.

As for `NC(CS)CCOc1ccccc1` (racemic) [Example 172, (R,S)-2-amino-4-phenoxy-1-butanethiol hydrochloride], the results for the Ki in assay [2] and in assay [4] were 0.015 µM and 0.19 µM, respectively.
